Source: the METLIN SMRT retention time set (Domingo-Almenara et al. 2019)

Test: gradient 5% acetonitrile 3 min, to 50% in 2 min, to 85% in 15 min, held 3 min, 100 µL/min
Details: column: Zorbax Extend-C18 2.1 x 50 mm; eluents: water / acetonitrile, 0.1% formic acid
Summary of the method: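 Over 3 months, pure standards in mixtures of ~100 molecules were run by HPLC coupled to a quadrupole time-of-flight mass spectrometer in positive and negative ionization mode. The column was a Zorbax Extend-C18 (2.1 × 50 mm, 1.8 μm) at 100 μL/min, eluted with water and acetonitrile each holding 0.1% formic acid, with 40 μL dead and 900 μL dwell volumes. Retention time was determined from adduct peaks chosen by software and checked manually.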

| RP-LC retention time [s] | SMILES |
| --- | --- |
| 823 | Cc1cccc(-c2nnc3ccc(Cl)nn23)c1 |
| 760 | CCCn1ccc2sc(C)c(C(=O)NC3CCCC3)c2c1=O |
| 990 | Cc1cc2nn(CC(=O)N3CCC(C)CC3)c(=O)n2c(Nc2ccc(F)cc2)n1 |
| 626 | COCc1c(C(=O)O)nnn1-c1ccc(OC)c(OC)c1 |
| 697 | CCN1C(=O)c2cccnc2Sc2cc(CNC(=O)c3ccn(CC)n3)ccc21 |
| 842 | Cc1nc2nc(-c3ccccc3)nn2c(C)c1CC(=O)N(C)Cc1ccccc1 |
| 610 | CCC(C)NC(=O)Cn1cnc2nc(N3CCCC(C(=O)NC4CC4)C3)sc2c1=O (configuration not stated) |
| 780 | Cc1ccc(-c2ncccc2CNS(=O)(=O)c2ccc(Cl)s2)cc1 |
| 1150 | CCOc1ccc(Cl)cc1S(=O)(=O)N1CCC(C(=O)Nc2ccccc2C(=O)OC)CC1 |
| 849 | N#Cc1cccc(CN2C[C@@H]3C(=O)N(CCc4ccccc4)C(=O)[C@@H]3C2)c1 |
| 720 | CN(C)C(=O)c1ccc2c(c1)CCN2C(=O)C1CCCC1 |
| 1150 | O=C(Cn1nc(N2CCCCCC2)c2ccccc2c1=O)Nc1ccc(F)c(F)c1 |
| 788 | CCOc1cc(C(=O)Nc2c(-c3ccc(F)cc3)nc3ccccn23)cc(OCC)c1OCC |
| 830 | Cc1ccc(-c2nnc(SCC(=O)Nc3ccc(C)cc3Br)o2)cc1 |
| 604 | COc1cc(CNC(=O)c2cn3cc(C)ccc3n2)cc(OC)c1 |
| 883 | CC1CCN(C(=O)C2c3ccccc3CCN2C(=O)C(C)C)CC1 (configuration not stated) |
| 942 | O=C(Nc1ccc(OCc2nnc(-c3ccc(Cl)cc3)o2)cc1)c1ccoc1 |
| 621 | O=C(CN1C(=O)CCc2cc(Br)ccc21)N1CCN(c2ccccn2)CC1 |
| 1030 | Cc1ccc(S(=O)(=O)Cc2cccc(-c3nc(-c4ccc5c(c4)oc(=O)n5C)no3)c2)cc1 |

| RP-LC retention time [s] | SMILES |
| --- | --- |
| 1320 | CCCN1C(=O)COc2ccc(-c3noc(-c4ccc(OCC)cc4)n3)cc21 |
| 718 | CCOC(=O)C(C)Sc1nnc2n1CCN2c1ccc(F)cc1 (configuration not stated) |
| 694 | COc1cccc(Nc2cc(C(=O)N3CCSCC3)nc3ccc(C)cc23)c1 |
| 684 | COc1cccc(NC(=O)NCC(c2cccnc2)c2cn(C)c3ccccc23)c1 (configuration not stated) |
| 742 | CN(C)C(=O)C1c2ccccc2CCN1CC(=O)N1CCN(c2ccc(Cl)cc2)CC1 (configuration not stated) |
| 676 | COc1ccc(OC)c(NC(=O)c2nc(N(C)C)c3c(C)cc(C)nc3n2)c1 |
| 800 | CCCN(CC(=O)N1CCc2sccc2C1COc1ccccc1OC)C(=O)COC (configuration not stated) |
| 734 | Cc1ccc(F)cc1S(=O)(=O)N1CCC(n2cnnc2C2CC2)CC1 |
| 566 | O=C(NCCN1CCOCC1)c1ccc(-c2ccc(N3CCCCCC3)nc2)cc1 |
| 1100 | CCc1nc2cc(-c3noc(-c4ccsc4)n3)ccc2o1 |
| 716 | O=C(Nc1c(-c2ccc(F)cc2)nc2ccccn12)c1ccc(Br)cc1 |
| 816 | Cc1noc(C)c1S(=O)(=O)N1CCC(CC(=O)NCCc2c[nH]c3ccccc23)CC1 |
| 967 | CC(C)c1noc(-c2cc(=O)n(CC(=O)Nc3cccc(C#N)c3)c3ccccc23)n1 |
| 724 | O=C(Nc1cc(F)cc(F)c1)C1CCN(c2cc(N3CCCC3)ncn2)CC1 |
| 823 | O=C(O)c1cnc(N2CCOCC2)nc1-c1ccc(Cl)cc1 |
| 664 | Cc1ccn2cc(-c3ccc(NC(=O)c4ccccc4C(F)(F)F)cc3)nc2n1 |
| 647 | O=C(NCCN1CCOCC1)c1nnc(-c2ccc(S(=O)(=O)N3CCCCC3)cc2)o1 |
| 1110 | CC1CCN(c2nn(CC(=O)Nc3ccccc3)c(=O)c3ccccc23)CC1 |
